Measured values: patent US11300568B2, “Methods for the diagnosis and treatment of gastrointestinal stromal tumors” (INSERM (INSTITUT NATIONAL DE LA SANTE ET DE LA RECHERCHE …, priority 2016, dated 2022)
Where a name gives a salt, the structure may show the parent alone.

What was measured:
GIST = details: after 5 years; increased from 30% after 1 year; cited from earlier work
[1] = test system: LIX1 transcript levels in GIST882 cells; experiment: LIX1 expression by RT-qPCR in GIST882 cells; type: cell-based, human; details: 1 μM, 6 h, 24 h and 48 h, vs DMSO control
Method: FIG. 1: LIX1 is expressed in GISTs. (A) LIX1 mRNA expression and regulation in the GIST882 cell line. (a) Semi-quantitative RT-PCR analysis of LIX1 transcript level in 131N1 (astrocytoma cells), PC3 (prostate cancer cells), HeLa, and GIST882 cells. Loading was verified by glyceraldehyde-3-phosphate dehydrogenase (GAPDH) expression. (b) Analysis of LIX1 expression by RT-qPCR in GIST882 cells upon incubation with DMSO alone (control) or with 7.5 μM of Akti (inhibitor of AKT) for 6 h, 24 h and 48 h. Normalized expression levels were converted to fold changes. *P<0.05; **P<0.01. (c) Analysis of LIX1 expression by RT-qPCR in GIST882 cells upon incubation with DMSO alone (control) or with 1 μM of imatinib mesylate (KIT inhibitor) for 6 h, 24 h and 48 h. […] (b) Relapse-free survival from initial imatinib mesylate treatment in group 1 presenting low level of LIX1 compared with group 2 presenting high level of LIX1 individuals with GIST, assessed in a univariate analysis using the Kaplan-Meier method. […]
Total RNA was extracted from stomachs or cell cultures with the HighPure RNA Isolation kit (Roche). […] Each sample was analysed in three independent experiments done in triplicate. Expression levels were determined with the LightCycler analysis software (version 3.5) relative to standard curves. […] Relative mRNA expression was calculated using the 2^−ΔΔCT method. […]

[2] = test system: LIX1 expression in GIST-T1 cells; experiment: LIX1 expression by RT-qPCR in GIST-T1 cells; type: cell-based, human; details: 0.5 μM, 6 h, 24 h and 48 h, vs DMSO control
Method: Analysis of LIX1 expression by RT-qPCR in GIST-T1 cells upon incubation with DMSO alone (control) or with 0.5 μM of imatinib mesylate (KIT inhibitor) for 6 h, 24 h and 48 h. Normalized expression levels were converted to fold changes. **P<0.01; ***P<0.001.
Resistance to tyrosine kinase inhibitors such as imatinib is increasing in GISTs and complete remissions are rare, highlighting the necessity to identify additional therapeutic targets. The inventors investigated the role of LIX1 in secondary imatinib-resistant GISTs using GIST-T1 cells, a primary gastric GIST cell line sensitive to Imatinib treatment that harbors hetereygous deletion in KIT gene with constitutive KIT signaling pathway.

[3] = test system: DF-1 fibroblast cell line; experiment: Cell proliferation of LIX1-expressing DF-1 cultures (Muse Count and Viability); type: cell-based, chicken; details: LIX1-expressing DF-1 cells, low density, 1 μM for 20 hours
Method: (§1) The chicken DF-1 fibroblast cell line was cultured as previously described. Cell growth in DF-1 cultures was assessed using the Muse Count and Viability reagent following the manufacturer's specifications (Muse Cell Analyzer-Millipore). DF-1 cells were plated on plastic at 2000 cells/cm^2 to obtain low-density cultures and 6000 cells/cm^2 to obtain high-density cultures. Verteporfin (Sellekchem) was used applied to DF-1 cells for 20 hours at a final concentration of 1 μM.
(§2) DF-1 chicken fibroblasts were infected with replication-competent RCAS retroviruses and cultured for 5 days to ensure homogeneous expression. […] This greater expression was associated with higher transcript levels of YAP1 pro-proliferation target genes CTGF and CYR61 and an increase in cell proliferation. […] After 3 days in culture, LIX1-expressing cells had grown faster than control cells. However, although YAP1 expression in LIX1-expressing cells remained higher than in controls, the levels of CTGF and CYR61 transcripts were similar to control levels.

[4] = test system: DF-1 fibroblast cell line; experiment: Analysis of cell death in DF-1 cultures; type: cell-based, chicken; details: 1 μM for 20 hours
Method: as §1, §2

[5] = test system: YAP1 activity (YAP-TEAD interaction); experiment: RT-qPCR of YAP1 and its targets CTGF and CYR61 in LIX1-expressing DF-1 cells; type: cell-based, chicken; details: low density, 1 μM for 20 hours
Method: as §1
Total RNA was extracted from stomachs or cell cultures with the HighPure RNA Isolation kit (Roche). Reverse transcription was performed using the Verso cDNA synthesis kit (Thermo Scientific) and RT-qPCR was performed using LightCycler technology (Roche Diagnostics). PCR primers were designed using the LightCycler Probe Design 2.0 software. Each sample was analysed in three independent experiments done in triplicate. Expression levels were determined with the LightCycler analysis software (version 3.5) relative to standard curves. Data were represented as the mean level of gene expression relative to the expression of the reference genes UBIQUITIN or GAPDH. Relative mRNA expression was calculated using the 2^−ΔΔCT method.
DF-1 chicken fibroblasts were infected with replication-competent RCAS retroviruses and cultured for 5 days to ensure homogeneous expression. […]

| Molecule | GIST patient survival (GIST) [%] | LIX1 transcript levels [1] | LIX1 expression [2] | rates of proliferation [3] | cytotoxic effect (cell death) [4] | YAP1 expression [5] | levels of CTGF and CYR61 transcripts [5] |
| --- | --- | --- | --- | --- | --- | --- | --- |
| Cc1ccc(NC(=O)c2ccc(CN3CCN(C)CC3)cc2)cc1Nc1nccc(-c2cccnc2)n1 [imatinib mesylate] | 50 | strong and efficient inhibition of LIX1 transcript levels | upregulated |  |  |  |  |
| verteporfin |  |  |  | comparable with control cells | not due to a cytotoxic effect | upregulation of YAP1 was still observed | comparable with control cells |
